Experiment [1] relates to P. falciparum male gametocytes. In words: P. falciparum Dual Gamete Formation Assay (PfDGFA), male readout (exflagellation). The class given is cell-based, Plasmodium falciparum NF54. The settings on record: for Average inhibition male (%): average of replicates; for % inhibition male (individual replicates) R1: replicate R1; for % inhibition male (individual replicates) R3: replicate R3; for % inhibition male (individual replicates) R4: replicate R4; for Activity: hit = >50% inhibition in male or female readout in at least 3 replicates, 0 = no class assigned. The method in brief:
(§1)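 Two sex-specific readouts come from one well: male exflagellation centres recorded by brightfield video right after activation, and female gametes scored by Cy3-anti-Pfs25 fluorescence after 24 h at 28°C.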

The subject of experiment [2] is P. falciparum female gametocytes. In words: P. falciparum Dual Gamete Formation Assay (PfDGFA), female readout (Pfs25-positive female gametes). The class given is cell-based, Plasmodium falciparum NF54. The settings on record: for Average inhibition female (%): average of replicates; for % inhibition female (individual replicates) R1: replicate R1; for % inhibition female (individual replicates) R3: replicate R3; for % inhibition female (individual replicates) R4: replicate R4. The gist of the method:
as §1

The mark [3] stands for this setting: 2µM, 24h preincubation with gametocytes prior to induction of gametogenesis.
The mark [4] stands for this setting: 2µM, 24h preincubation, number of replicates with >50% inhibition in the male readout.
The mark [5] stands for this setting: 2µM, 24h preincubation, number of replicates with >50% inhibition in the female readout.
Setting [6] is: PfDGFA at 2µM, 24h preincubation with gametocytes prior to induction of gametogenesis.
[7] abbreviates: PfDGFA at 2µM, 24h preincubation.
The mark [8] stands for this setting: 2µM, 24h preincubation, hits selected on >50% inhibition in the male readout across replicates.
Setting [9] is: 2µM, 24h preincubation, hits selected on >50% inhibition in the female readout across replicates.
[10] abbreviates: PfDGFA at 2µM, 24h preincubation with gametocytes.
Setting [11] is: number of replicates with >50% inhibition in the male readout, 2µM.
The mark [12] stands for this setting: number of replicates with >50% inhibition in the female readout, 2µM.

The results in this text go back to paper PMC10584170, “Machine learning-based phenotypic imaging to characterise the targetable biology of Plasmodium falciparum male gametocytes for the development of transmission-blocking antimalarials” (PLOS Pathogens, 2023).

For the compound `Cl.N[C@@H](CCNC1CCN(c2cccc(C(F)(F)F)c2)CC1)Cc1ccc(F)c(F)c1` [TCMDC-132301], in experiment [1] (setting [3]), the “Average inhibition male (%)” value is on record as 53.1%, the “% inhibition male (individual replicates) R1” value came to 61.1%, the “% inhibition male (individual replicates) R3” value came to 44.2% and the “% inhibition male (individual replicates) R4” value is on record as 79.6%. Further, the HitlevelM in experiment [1] (setting [4]) was found to be 2. Also, in experiment [2] (setting [3]), the “Average inhibition female (%)” value came out at 52.8%, the “% inhibition female (individual replicates) R1” value stood at 47.6%, the “% inhibition female (individual replicates) R3” value is listed as 42.6% and the “% inhibition female (individual replicates) R4” value was 73.6%. Further, the HitlevelF in experiment [2] (setting [5]) amounted to 1.

Turning to `CC(O)C1CCCCN1C(=O)c1ccc(-c2ccc(-c3nc4ccccc4[nH]3)s2)cc1` (stereo not drawn) [TCMDC-132330], in experiment [1] (setting [6]), the “% inhibition male (individual replicates) R1” value came out at 10.5%, the “% inhibition male (individual replicates) R3” value was found to be 7.6% and the “% inhibition male (individual replicates) R4” value is recorded as 19.6%. For the same compound, the “Average inhibition male (%)” value in experiment [1] (setting [7]) is recorded as 14.0%. For the same compound, in experiment [2] (setting [6]), the “% inhibition female (individual replicates) R1” value is given as 7.4%, the “% inhibition female (individual replicates) R3” value is listed as -27.3% and the “% inhibition female (individual replicates) R4” value is given as 14.9%. Moreover, the “Average inhibition female (%)” value in experiment [2] (setting [7]) is reported as -1.0%.

Regarding `CN(C)Cc1ccc(-c2ccc(NC(=O)c3ccc4c(=O)n(Cc5ccccc5)cnc4c3)cc2)cc1` [TCMDC-132361], in experiment [1] (setting [3]), the “Average inhibition male (%)” value was 62.7%, the “% inhibition male (individual replicates) R1” value came to 57.2% and the “% inhibition male (individual replicates) R4” value came out at 53.6%. Moreover, in experiment [1] (setting [4]), the HitlevelM is 3. Further, in experiment [2] (setting [3]), the “Average inhibition female (%)” value is on record as 36.5%, the “% inhibition female (individual replicates) R1” value was 37.4%, the “% inhibition female (individual replicates) R3” value amounted to 28.0% and the “% inhibition female (individual replicates) R4” value amounted to 35.8%. The HitlevelF in experiment [2] (setting [5]) is 0.

Regarding `COc1ccc(-c2cccc(CNC3CCN(C)CC3)c2)cc1S(=O)(=O)NCc1ccccc1.O=C(O)C(F)(F)F` [TCMDC-132375], in experiment [1] (setting [3]), the “Average inhibition male (%)” value was found to be 31.3%, the “% inhibition male (individual replicates) R1” value is recorded as 25.4%, the “% inhibition male (individual replicates) R3” value was 11.7% and the “% inhibition male (individual replicates) R4” value came to 56.9%. In experiment [1] (setting [8]), the HitlevelM is 1. In experiment [1] (setting [7]), this compound gave an Activity of 0. In experiment [2] (setting [3]), the “Average inhibition female (%)” value stood at 14.0%, the “% inhibition female (individual replicates) R1” value came to 15.7%, the “% inhibition female (individual replicates) R3” value is 4.8% and the “% inhibition female (individual replicates) R4” value was found to be 20.5%. Also, the HitlevelF in experiment [2] (setting [9]) is 0.

In the case of `Cc1cc(-c2cccc(CNC3CCN(C)CC3)c2)ccc1S(=O)(=O)NCc1ccccc1.O=C(O)C(F)(F)F` [TCMDC-132379], in experiment [1] (setting [3]), the “Average inhibition male (%)” value is on record as 43.8%, the “% inhibition male (individual replicates) R1” value came to 43.1%, the “% inhibition male (individual replicates) R3” value is reported as 25.4% and the “% inhibition male (individual replicates) R4” value is reported as 55.6%. Also, the HitlevelM in experiment [1] (setting [8]) stood at 2. The compound also displayed an Activity in experiment [1] (setting [7]) of 0. In experiment [2] (setting [3]), the “Average inhibition female (%)” value worked out at 17.5%, the “% inhibition female (individual replicates) R1” value is listed as 20.6%, the “% inhibition female (individual replicates) R3” value amounted to 25.5% and the “% inhibition female (individual replicates) R4” value was -4.5%. For the same compound, in experiment [2] (setting [9]), the HitlevelF turned out to be 0.

Turning to `COc1ccc(CNC2CCN(C)CC2)cc1-c1ccc(S(=O)(=O)NCc2ccccc2)c(C)c1.O=C(O)C(F)(F)F` [TCMDC-132480], in experiment [1] (setting [10]), the “Average inhibition male (%)” value was 78.0%, the “% inhibition male (individual replicates) R1” value was 73.4%, the “% inhibition male (individual replicates) R3” value turned out to be 67.7% and the “% inhibition male (individual replicates) R4” value stood at 91.6%. Moreover, in experiment [1] (setting [11]), the HitlevelM was 4. Moreover, in experiment [2] (setting [10]), the “Average inhibition female (%)” value worked out at 36.3%, the “% inhibition female (individual replicates) R1” value amounted to 30.7%, the “% inhibition female (individual replicates) R3” value is recorded as 36.3% and the “% inhibition female (individual replicates) R4” value is 41.6%. In experiment [2] (setting [12]), this compound came in with a HitlevelF of 0.

With `CCS(=O)(=O)c1ccc(-c2cnc3[nH]cc(-c4ccc(N)cc4)c3c2)cc1` [TCMDC-132582], in experiment [1] (setting [3]), the “Average inhibition male (%)” value is on record as 35.5%, the “% inhibition male (individual replicates) R1” value was 70.7% and the “% inhibition male (individual replicates) R4” value is listed as -32.7%. The HitlevelM in experiment [1] (setting [4]) was determined as 2. Besides, in experiment [2] (setting [3]), the “Average inhibition female (%)” value came to 24.2%, the “% inhibition female (individual replicates) R1” value was 25.6%, the “% inhibition female (individual replicates) R3” value is on record as 29.8% and the “% inhibition female (individual replicates) R4” value was found to be 22.2%. In experiment [2] (setting [5]), this compound returned a HitlevelF of 0.

Turning to `Cc1cccc2nc(-c3ccc(-c4cccc(CNC5CCN(C)CC5)c4)s3)[nH]c12.O=C(O)C(F)(F)F` [TCMDC-132736], in experiment [1] (setting [3]), the “Average inhibition male (%)” value was 63.8%, the “% inhibition male (individual replicates) R1” value was 48.5% and the “% inhibition male (individual replicates) R4” value amounted to 67.2%. The compound further yielded a HitlevelM in experiment [1] (setting [8]) of 2. The same compound yielded an Activity in experiment [1] (setting [7]) of 0. For the same compound, in experiment [2] (setting [3]), the “Average inhibition female (%)” value was 18.0%, the “% inhibition female (individual replicates) R1” value is on record as 17.1%, the “% inhibition female (individual replicates) R3” value is on record as 23.2% and the “% inhibition female (individual replicates) R4” value is listed as 22.3%. Besides, the HitlevelF in experiment [2] (setting [9]) was found to be 0.

`CN(CCN)Cc1ccc(-c2ccc(-c3nc4cc(C(F)(F)F)ccc4[nH]3)s2)cc1.O=C(O)C(F)(F)F` [TCMDC-132821]: in experiment [1] (setting [3]), the “Average inhibition male (%)” value is recorded as -7.8%, the “% inhibition male (individual replicates) R1” value is recorded as -14.8% and the “% inhibition male (individual replicates) R4” value is listed as -7.6%. In experiment [1] (setting [8]), this compound gave a HitlevelM of 0. Further, the Activity in experiment [1] (setting [7]) was found to be 0. Besides, in experiment [2] (setting [3]), the “Average inhibition female (%)” value came to 8.7%, the “% inhibition female (individual replicates) R1” value is 4.7%, the “% inhibition female (individual replicates) R3” value turned out to be 20.4% and the “% inhibition female (individual replicates) R4” value is reported as 7.1%. The compound further showed a HitlevelF in experiment [2] (setting [9]) of 0.

Take `CNCCNCc1ccc(-c2ccc(-c3nc4cc(F)ccc4[nH]3)s2)cc1.O=C(O)C(F)(F)F` [TCMDC-132829]: in experiment [1] (setting [10]), the “Average inhibition male (%)” value was 66.0%, the “% inhibition male (individual replicates) R1” value is on record as 54.3% and the “% inhibition male (individual replicates) R4” value turned out to be 78.8%. In addition, in experiment [1] (setting [11]), the HitlevelM is 3. Besides, in experiment [2] (setting [10]), the “Average inhibition female (%)” value was 12.3%, the “% inhibition female (individual replicates) R1” value is recorded as 11.4%, the “% inhibition female (individual replicates) R3” value is given as 10.0% and the “% inhibition female (individual replicates) R4” value came out at 9.0%. In addition, the HitlevelF in experiment [2] (setting [12]) stood at 0.

Turning to `CNCCNCc1cccc(-c2ccc(-c3nc4cc(C(F)(F)F)ccc4[nH]3)s2)c1.O=C(O)C(F)(F)F` [TCMDC-132830], in experiment [1] (setting [3]), the “Average inhibition male (%)” value was found to be 36.6%, the “% inhibition male (individual replicates) R1” value is 35.0%, the “% inhibition male (individual replicates) R3” value is listed as 16.5% and the “% inhibition male (individual replicates) R4” value is 60.2%. This compound showed a HitlevelM in experiment [1] (setting [4]) of 1. Moreover, in experiment [2] (setting [3]), the “Average inhibition female (%)” value is given as 26.5%, the “% inhibition female (individual replicates) R1” value stood at 19.8%, the “% inhibition female (individual replicates) R3” value is recorded as 8.2% and the “% inhibition female (individual replicates) R4” value is given as 49.8%. Further, the HitlevelF in experiment [2] (setting [5]) was 0.

On to `CNCCNCc1ccc(-c2ccc(-c3nc4cc(C(F)(F)F)ccc4[nH]3)cc2)cc1.O=C(O)C(F)(F)F` [TCMDC-132833], for which, in experiment [1] (setting [3]), the “Average inhibition male (%)” value is 23.6%, the “% inhibition male (individual replicates) R1” value turned out to be 9.5%, the “% inhibition male (individual replicates) R3” value turned out to be 12.3% and the “% inhibition male (individual replicates) R4” value came to 50.2%. For the same compound, the HitlevelM in experiment [1] (setting [8]) was found to be 1. The Activity in experiment [1] (setting [7]) amounted to 0. Besides, in experiment [2] (setting [3]), the “Average inhibition female (%)” value came out at 17.0%, the “% inhibition female (individual replicates) R1” value stood at 21.1%, the “% inhibition female (individual replicates) R3” value stood at 25.6% and the “% inhibition female (individual replicates) R4” value was determined as 19.1%. The compound further came in with a HitlevelF in experiment [2] (setting [9]) of 0.

On to `CNCCNCc1cccc(-c2ccc(-c3nc4cc(C(F)(F)F)ccc4[nH]3)cc2)c1.O=C(O)C(F)(F)F` [TCMDC-132834], for which, in experiment [1] (setting [3]), the “Average inhibition male (%)” value is 47.7%, the “% inhibition male (individual replicates) R1” value is listed as 40.3%, the “% inhibition male (individual replicates) R3” value turned out to be 3.4% and the “% inhibition male (individual replicates) R4” value was 68.9%. Besides, the HitlevelM in experiment [1] (setting [8]) is given as 2. Besides, the Activity in experiment [1] (setting [7]) was determined as 0. In addition, in experiment [2] (setting [3]), the “Average inhibition female (%)” value amounted to 13.1%, the “% inhibition female (individual replicates) R1” value amounted to 23.3%, the “% inhibition female (individual replicates) R3” value is listed as 8.2% and the “% inhibition female (individual replicates) R4” value is 10.1%. This compound also came in with a HitlevelF in experiment [2] (setting [9]) of 0.
